# Experimental data from US5591728A, “New phosphonic acid compounds” (Adir Et Compagnie, priority 1993, dated 1997).
# Counter-ions that a name gives are not always drawn.
# Legend:
# [1] = test system: big ET-1-induced pressor responses (inhibition of ECE); test: In vivo study on pithed rats: big ET-1-induced pressor response; set-up: species or system Sprague-Dawley rats; settings: for IC50 with respect to big ET-1: big ET-1 1 nmol/kg injection, product given by infusion
# Description: (§1) Sprague-Dawley rats (300400 g) are anesthetized with ether. The animals are then pithed and placed under artificial respiration. The vagus nerves are sectioned and the carotid arteries ligated. A catheter is introduced into one of the carotid arteries to measure arterial blood pressure. A second catheter is introduced into the vein of the penis to enable substances to be injected.
# After a stabilization period, the animals receive an injection of endothelin-1 (ET-1; 0.5 nmol/kg) or its precursor, big endothelin-1 (big ET-1; 1 nmol/kg).
# [2] = test system: pressor responses obtained with big ET-1; test: In vitro study on perfused isolated rat kidney: pressor response to big ET-1; set-up: species or system male Wistar rats; settings: big ET-1 0.4 nmol bolus
# Procedure: The studies are performed on kidneys prepared from male Wistar rats (300400 g). The rats are anesthetized with pentobarbitone sodium (50 mg/kg i.p.) and the left kidney is prepared so as to permit perfusion with Tyrode solution. The variations in perfusion pressure are measured continuously. The perfusion flow rate is 6 ml/min. After stabilization, a bolus injection of ET- 1 (0.03 nmol) or of big ET-1 (0.4 nmol) is performed and the pressor response is recorded. […] The IC50 values of the products are calculated and the results are given in μM.
# [3] = test system: ET-1-induced hypertension; test: In vivo study on pithed rats: ET-1-induced hypertension; set-up: species or system Sprague-Dawley rats; settings: ET-1 0.5 nmol/kg
# Description: as §1
# After a stabilization period, the animals receive an injection of endothelin-1 (ET-1; 0.5 nmol/kg) or its precursor, big endothelin-1 (big ET-1; 1 nmol/kg). The pressor responses are recorded and, after the pressure has returned to its initial value (1 h 30 min to 2 hours), a second injection of ET-1 or of big ET-1 is given in the presence or absence of an infusion of a product of the invention or of the reference substance, phosphoramidon. Phosphoramidon and the products of the invention had no effect on ET-1-induced hypertension.
Compound,IC50 with respect to big ET-1 [1],IC50 [2],inhibition of pressor responses obtained with big ET-1 ([2]; in words),effect on ET-1-induced hypertension [3],"inhibition of big ET-1-induced pressor responses ([1]; big ET-1 1 nmol/kg, in words)"
"N-[((R)-2,3-Dihydroxypropoxy)hydroxyphosphinyl]-(S)Leu-(S)Trp-OH dilithium salt [Example 10]",230 µg/kg/min,–,–,–,–
"CCOC(=O)[C@H](Cc1c[nH]c2ccccc12)NC(=O)[C@H](CC(C)C)NP(=O)(O)OCCO [Example 3, N-[(2-Hydroxyethoxy)hydroxyphosphinyl]-(S)Leu-(S)Trp-OEt disodium salt]",280 µg/kg/min,5 µM,–,–,–
"CC(C)C[C@H](NP(=O)(O)O[C@@H]1O[C@@H](C)[C@H](O)[C@@H](O)[C@H]1O)C(=O)N[C@@H](Cc1c[nH]c2ccccc12)C(=O)[O-].CC(C)C[C@H](NP(=O)(O)O[C@@H]1O[C@@H](C)[C@H](O)[C@@H](O)[C@H]1O)C(=O)N[C@@H](Cc1c[nH]c2ccccc12)C(=O)[O-].[Na+].[Na+] [Phosphoramidon, N-[α-(S)-(rhamnopyranosyloxy) hydroxyphosphinyl]-(S)leu-(S) Trp-OH disodium salt, reference compound]",125 µg/kg/min,0.9 µM,substantially inhibited,no effect,inhibited big ET-1-induced pressor responses in a dose-dependent manner
"N-[((S)-2,3-Dihydroxypropoxy)hydroxyphosphinyl]-(S)Leu-(S)Trp-OH dilithium salt [Example 11]",100 µg/kg/min,–,–,–,–
"CC(C)C[C@H](NP(=O)(O)OCCC(O)CO)C(=O)N[C@@H](Cc1c[nH]c2ccccc12)C(=O)O (stereo partly drawn) [Example 12, N-[(3,4-Dihydroxybutoxy)hydroxyphosphinyl]-(S)Leu-(S) Trp-OH dilithium salt]",140 µg/kg/min,–,–,–,–
"CC(C)C[C@H](NP(=O)(O)OCC(O)CO)C(=O)N[C@@H](Cc1c[nH]c2ccccc12)C(=O)O (stereo partly drawn) [Example 1, N-[(2,3-Dihydroxypropoxy)hydroxyphosphinyl]-(S)Leu-(S) Trp-OH disodium salt]",100 µg/kg/min,4 µM,–,–,–

# Second part, led by results:
IC50 with respect to big ET-1 [1],IC50 [2],Compound,inhibition of pressor responses obtained with big ET-1 ([2]; in words),effect on ET-1-induced hypertension [3],"inhibition of big ET-1-induced pressor responses ([1]; big ET-1 1 nmol/kg, in words)"
200 µg/kg/min,–,"CCOC(=O)[C@H](Cc1c[nH]c2ccccc12)NC(=O)[C@H](CC(C)C)NP(=O)(O)OCCCN [Example 9, N-[(3-Aminopropoxy)hydroxyphosphinyl]-(S)Leu-(S)Trp-OEt lithium salt]",–,–,–
430 µg/kg/min,7 µM,"CC(C)C[C@H](NP(=O)(O)OCCO)C(=O)N[C@@H](Cc1c[nH]c2ccccc12)C(=O)O [Example 4, N-[(2-Hydroxyethoxy)hydroxyphosphinyl]-(S)Leu-(S)Trp-OH disodium salt]",–,–,–
480 µg/kg/min,–,"CC(C)C[C@H](NP(=O)(O)OC(CO)CO)C(=O)N[C@@H](Cc1c[nH]c2ccccc12)C(=O)O [Example 8, N-{[(1-Hydroxymethyl-2-hydroxy)ethoxy]hydroxyphosphinyl]-(S)Leu-(S) Trp-OH dilithium salt]",–,–,–
